The values that follow come from BindingDB's records for patent US11185537 (Novartis, 2021).

Molecules are shown by their SMILES.

Test [1] addresses DNA-binding protein Ikaros (Human, UniProt Q13422).
The target of test [2] is Zinc finger protein Helios (Homo sapiens, UniProt Q9UKS7).
Zinc finger protein Helios, sequence (Q9UKS7 whole entry): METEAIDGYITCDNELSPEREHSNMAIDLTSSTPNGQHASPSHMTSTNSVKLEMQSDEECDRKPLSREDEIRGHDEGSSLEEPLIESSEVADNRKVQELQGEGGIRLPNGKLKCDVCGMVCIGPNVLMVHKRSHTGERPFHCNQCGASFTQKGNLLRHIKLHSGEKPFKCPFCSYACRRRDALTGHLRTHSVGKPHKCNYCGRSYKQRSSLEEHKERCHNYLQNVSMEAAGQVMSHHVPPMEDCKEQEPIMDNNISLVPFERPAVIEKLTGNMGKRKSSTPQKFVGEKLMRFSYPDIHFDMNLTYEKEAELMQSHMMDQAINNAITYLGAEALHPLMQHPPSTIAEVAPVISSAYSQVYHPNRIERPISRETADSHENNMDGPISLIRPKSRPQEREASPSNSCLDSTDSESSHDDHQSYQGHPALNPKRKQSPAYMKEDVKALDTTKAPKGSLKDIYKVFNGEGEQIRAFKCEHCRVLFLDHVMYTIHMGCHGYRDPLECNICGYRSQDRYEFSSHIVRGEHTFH

DNA-binding protein Ikaros, sequence (Q13422 whole entry): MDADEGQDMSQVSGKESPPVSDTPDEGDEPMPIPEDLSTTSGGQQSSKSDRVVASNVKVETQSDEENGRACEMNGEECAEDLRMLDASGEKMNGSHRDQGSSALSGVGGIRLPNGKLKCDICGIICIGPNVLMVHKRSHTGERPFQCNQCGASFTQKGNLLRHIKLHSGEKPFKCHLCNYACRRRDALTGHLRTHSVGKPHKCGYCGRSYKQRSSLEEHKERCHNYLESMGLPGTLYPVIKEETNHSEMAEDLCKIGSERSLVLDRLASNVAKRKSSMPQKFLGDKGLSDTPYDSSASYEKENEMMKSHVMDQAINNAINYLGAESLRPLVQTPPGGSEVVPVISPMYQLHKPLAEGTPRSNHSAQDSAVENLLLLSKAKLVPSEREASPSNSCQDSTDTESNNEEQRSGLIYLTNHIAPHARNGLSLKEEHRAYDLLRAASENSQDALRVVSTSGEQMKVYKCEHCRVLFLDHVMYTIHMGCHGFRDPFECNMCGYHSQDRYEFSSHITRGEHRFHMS

Regarding `CN[C@H]1CC=CC[C@@H]1N(C)c1ccc2c(c1)CN(C1CCC(=O)NC1=O)C2=O` (some centres not stated) [US11185537, Compound Mix], the EC50 in test [1] worked out at 120 nM; in test [2], 230 nM.

As usually defined, the EC50 is the midpoint of the concentration-response curve. A low value points to an effect from little substance.
